Source: EP4722203A1, “3,4-DIHYDROPHTHALAZIN-1(2H)-ONE DERIVATIVE, AND PREPARATION METHOD THEREFOR AND USE THEREOF” (Academy of Military Medical Sciences, priority 2023, dated 2024)

Key:
[1] = tested on: human multiple myeloma RPMI-8226 xenograft tumors; test: In vivo activity against RPMI-8226 transplanted tumor; set-up: species or system NOD/SCID mice; details: 10 mg/kg, QD; for Tumor inhibition rate TGI (%) / Volume (mm^3), 0 days / Volume (mm^3), 12 days: oral gavage; for Tumor inhibition rate TGI (%): 12 consecutive days; for Volume (mm^3), 0 days: tumor volume at 0 days (baseline); for Volume (mm^3), 12 days: tumor volume at 12 days
Experimental: In this example, human multiple myeloma RPMI-8226 cell line was used as the cell model. The inhibitory effects of compounds on the growth of NOD/SCID mouse transplanted tumors of RPMI-8226 tumor cells were determined. The evaluation methods and results are described below.
Human multiple myeloma RPMI-8226 cells were routinely cultured in RPMI1640 containing 10% fetal bovine serum at 37°C in a 5% CO2 incubator. After three passages in vitro, when the cells reached over 80% confluence and the required confluence rate, the cells were digested and harvested. After washing with PBS, the cells were counted and the cell concentration was adjusted to approximately 5 × 10^7 cells/mL. The cells were then placed in 4 mL centrifuge tubes on ice for later use.
Female NOD/SCID mice aged 4-5 weeks were selected and subcutaneously inoculated with RPMI-8226 cells ectopically. The mice were held in a lateral position, the forelimb axilla was disinfected with 75% alcohol, and 100 µL of the cell suspension was injected subcutaneously into the axilla using a 1 mL syringe ([…]/100 µL).
Once the tumors grew to 90-150 mm^3, the animals were randomly grouped, 8 mice per group, and administered according to different administration methods as follows: • Model control group: administered with the same volume of Vehicle (DMSO: 0.5% sodium carboxymethyl cellulose: distilled water = 1:1:8) daily by gavage; • Test groups: administered with compound I-4 and compound I-8 solutions at 10 mg/kg (mouse body weight) daily by gavage, respectively; • Positive control group: administered with pomalidomide solution at 10 mg/kg (mouse body weight) daily by gavage.
The route of administration was oral gavage, and the administration frequency was once daily, for 12 consecutive days. The first day of administration was defined as Day 1 of the experiment. Tumor volume changes in mice were measured and recorded every two days. Tumor volume was measured using a vernier caliper, in which the major axis (a) and minor axis (b) of the tumor were measured, and the tumor volume was calculated as: tumor volume V (mm^3) = a x b^2/2. After the experiment, the mice were dissected and the tumor weight was measured. The data were entered and statistically analyzed using GraphPad Prism 6 software. The data are expressed as mean ± SEM (Standard Error of Mean), and one-way ANOVA was used. P ≤ 0.05 was considered statistically significant.

MV-4-11 cells = test: Antiproliferative activity, CCK-8 assay; type: cell-based; details: Homo sapiens, MV4-11; 144 hours incubation, CCK-8, absorbance at 450 nm
Experimental: (§1) The cell models used in this example were human hematologic tumor cells, including NCI-H929, RPMI-8226, MV-4-11, U937 and WSU-DLCL-2. Some of the compounds of the present invention were selected to determine their inhibitory activity against the proliferation of NCI-H929, RPMI-8226, MV-4-11, U937, and WSU-DLCL-2 cells.
(§2) • ① The selected compounds were dissolved in DMSO to prepare 10 mM stock solutions. Compounds used within three months should be stored at room temperature in a desiccator; others could be stored at -20°C for long-term storage. • ② The above stock solutions and the positive reference compound pomalidomide were diluted with DMSO. Their initial concentrations were 10 µM. In the experiments of NCI-H929 and RPMI-8226 cells, 3-fold serial dilution with 11 concentration points was performed, with the lowest concentration of 0.00047 µM. The resulting solutions were shaken on a shaker for 5 minutes.
(§3) • ① The NCI-H929, RPMI-8226, MV-4-11, U937, and WSU-DLCL-2 cells in logarithmic growth phase were inoculated in a 96-well plate, 20,000 to 30,000 cells per well, and the plate was pre-cultured for 24 hours in an incubator (at 37°C and 5% CO2). • ② The culture medium in the plate was replaced, and the compounds and the positive control with corresponding concentrations were added to the plated at a volume of 50 µl. • ③ The plate was incubated for 144 hours in an incubator, then 15 µl of CCK-8 solution was added to each well, and incubated in the incubator for another 1-4 hours. • ④ The absorbance at 450 nm was measured using a microplate reader.
(§4) • ① Calculating % Inhibition: [formula] • ② Calculating IC50 value of compound and plotting dose-response curve: The IC50 value was calculated by fitting the % Inhibition and the logarithm of compound concentration to a nonlinear regression (dose response-variable slope) by using GraphPad 6.0. • Y = Bottom + (Top - Bottom) / (1 + 10^((LogIC50 - X) * HillSlope)) • X: log of inhibitor concentration; Y: % Inhibition.
(§5) After calculating % Inhibition, a dose-response curve was plotted with the logarithm of the test compound concentration as the x-axis and the average cell viability as the y-axis, and the IC50 value was obtained by fitting.

NCI-H929 cells = test: Antiproliferative activity, CCK-8 assay; type: cell-based; details: Homo sapiens, 144 hours incubation, CCK-8, absorbance at 450 nm, read-out: IC50 (µM) H-929
Experimental: as §1, §2, §3, §4, §5

WSU-DLCL-2 cells = test: Antiproliferative activity, CCK-8 assay; type: cell-based; details: Homo sapiens, WSUDLCL2; 144 hours incubation, CCK-8, absorbance at 450 nm
Experimental: as §1, §2, §3, §4, §5

U937 cells = test: Antiproliferative activity, CCK-8 assay; type: cell-based; details: Homo sapiens, U-937; 144 hours incubation, CCK-8, absorbance at 450 nm
Experimental: as §1, §2, §3, §4, §5

| IC50 (MV-4-11 cells) | IC50 (NCI-H929 cells) | IC50 (U937 cells) | Structure (SMILES) | growth of RPMI-8226 transplanted tumors (in words) [1] | Tumor inhibition rate TGI (%) [1] | Volume (mm^3), 0 days [1] | Volume (mm^3), 12 days [1] | IC50 (WSU-DLCL-2 cells) |
| --- | --- | --- | --- | --- | --- | --- | --- | --- |
| 0.183 µM | 0.116 µM | 0.31 µM | CN1Cc2c(N)cccc2C(=O)N1C1CCC(=O)NC1=O (centres unmarked) [I-4, 3-(5-amino-3-methyl-1-oxo-3,4-dihydrophthalazin-2(1H)-yl)piperidin-2,6-dione] | significantly inhibit the growth | 73.38% | 189.0 mm^3 | 541.1 mm^3 | 1.21 µM |
| 0.0058 µM | 0.0039 µM | 0.0088 µM | CN1Cc2c(NCc3ccc(CN4CCN(c5ccc(C#N)c(F)c5)CC4)cc3)cccc2C(=O)N1C1CCC(=O)NC1=O (centres unmarked) [I-8] | significantly inhibit the growth | 80.13% | 257.5 mm^3 | 520.3 mm^3 | 0.017 µM |
| > 10 µM | 3.91 µM | 2.53 µM | Nc1cccc2c1C(=O)N(C1CCC(=O)NC1=O)C2=O (centres unmarked) [Pomalidomide, reference compound] |  | 47.80% | 180.0 mm^3 | 870.4 mm^3 | > 10 µM |
